Data published in patent US12065404B2, “C4-carboxylic acid-substituted tryptamine derivatives and methods of using” (priority 2022, dated 2024).
Where “and” joins values, the source holds several entries; their conditions need not be identical. Identical values can stand only once. Entries after “also recorded” stand apart in the source; their conditions may differ.

How the values were obtained:
5-HT1A receptor = molecular target: T1, 5-HT1A receptor (Homo sapiens, UniProt P08908); experiment: cAMP-Glo assay of 5-HT1A receptor modulation, +5-HT1A (CHO-K1/5-HT1A/Ga15) vs -5-HT1A (CHO-K1/Ga15) cells; assay type: cell-based; design: dose or concentration left out as unconfirmed; conditions: +5-HT1A vs -5-HT1A cell cultures stimulated with forskolin, increasing ligand concentrations
T1 construct: host or cells: CHO-K1 (co-expressing Ga15)
T1 sequence (P08908 1-422): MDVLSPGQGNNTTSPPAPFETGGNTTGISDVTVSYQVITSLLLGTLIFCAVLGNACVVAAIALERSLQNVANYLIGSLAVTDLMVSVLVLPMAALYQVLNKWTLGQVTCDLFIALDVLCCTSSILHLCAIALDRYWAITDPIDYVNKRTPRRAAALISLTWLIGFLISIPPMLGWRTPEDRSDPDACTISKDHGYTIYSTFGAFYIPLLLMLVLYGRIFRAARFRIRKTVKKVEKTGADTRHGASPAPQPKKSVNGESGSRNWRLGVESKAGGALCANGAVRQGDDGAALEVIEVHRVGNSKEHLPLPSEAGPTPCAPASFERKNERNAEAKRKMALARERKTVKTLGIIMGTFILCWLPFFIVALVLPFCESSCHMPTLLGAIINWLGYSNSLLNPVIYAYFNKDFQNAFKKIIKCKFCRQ

[1] = molecular target: T2, neuronal 5-HT2A receptor (5-HT2AR) (Mus musculus, UniProt P35363); experiment: Drug-induced Head Twitch Response (HTR) in mice; assay type: in vivo, C57BL/6-Elite mice; conditions: 1 mg/kg i.p., 15-to-30-minute window post-drug, relative to vehicle-treated control mice
T2 construct: HTR was measured in mice treated with a control and test compounds; tissue Charles River; host or cells: live C57BL/6-Elite mice (neuronal receptor)
T2 sequence (P35363 whole entry): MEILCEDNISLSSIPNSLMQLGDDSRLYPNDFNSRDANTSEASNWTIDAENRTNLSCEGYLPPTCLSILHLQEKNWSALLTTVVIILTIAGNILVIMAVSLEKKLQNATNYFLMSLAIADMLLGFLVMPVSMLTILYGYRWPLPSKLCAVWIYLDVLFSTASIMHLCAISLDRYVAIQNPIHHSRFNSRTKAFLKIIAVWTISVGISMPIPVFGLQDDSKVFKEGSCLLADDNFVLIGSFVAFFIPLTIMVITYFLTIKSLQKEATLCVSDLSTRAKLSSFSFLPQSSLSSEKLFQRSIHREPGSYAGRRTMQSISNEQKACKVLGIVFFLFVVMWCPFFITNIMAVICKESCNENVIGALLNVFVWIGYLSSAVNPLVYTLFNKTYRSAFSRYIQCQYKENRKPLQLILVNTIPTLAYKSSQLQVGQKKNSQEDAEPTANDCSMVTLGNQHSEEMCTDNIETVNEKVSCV

[2] = Mouse pharmacokinetic (PK) study, parent compound and psilocin metabolite in plasma; assay type: in vivo, C57Bl/6 mice; conditions: for F(%) / F(%), M37 considered as an outlier: AUC0-tlast used for p.o. group; for F(%): value might be under-estimated; for F(%), M37 considered as an outlier: i.v. animal M37 considered an outlier
Excerpt: Briefly, the procedure was as follows. […] 19, 2022.

[3] = 1 mg/kg i.v. C(I), 6 h, individual animals
[4] = 1 mg/kg i.v. C(I), 8 h, individual animals
[5] = 1 mg/kg oral C(I), 8 h, individual animals
[6] = 1 mg/kg oral C(I), 24 h, individual animals
[7] = 1 mg/kg oral, individual animals
[8] = 3 mg/kg oral C(I), 24 h, individual animals
[9] = 3 mg/kg oral, individual animals
[10] = 10 mg/kg oral C(I), 24 h, individual animals

## CN(C)CCc1c[nH]c2cccc(OC(=O)c3ccc(Br)cc3)c12 [C(I)]
5-HT1A receptor
  5-HT1A receptor modulation (reduction of cAMP levels): mild receptor modulation at higher ligand concentrations
[1]
  Incidences of Head Twitch Response (HTR): Elevated incidences of HTR
[2]; 1 mg/kg i.v. C(I), 5 min, individual animals
  Plasma concentration of C(I): 2620 ng/mL and 118 ng/mL and 94.4 ng/mL
[2]; 1 mg/kg i.v. C(I), 0.25 h, individual animals
  Plasma concentration of C(I): 1250 ng/mL and 58.5 ng/mL and 48.2 ng/mL
[2]; 1 mg/kg i.v. C(I), 0.5 h, individual animals
  Plasma concentration of C(I): 348 ng/mL and 33.4 ng/mL and 30.4 ng/mL
[2]; 1 mg/kg i.v. C(I), 1 h, individual animals
  Plasma concentration of C(I): 128 ng/mL and 17.9 ng/mL and 13.8 ng/mL
[2]; 1 mg/kg i.v. C(I), 2 h, individual animals
  Plasma concentration of C(I): 52.8 ng/mL and 3.61 ng/mL and 3.40 ng/mL
[2]; 1 mg/kg i.v. C(I), 4 h, individual animals
  Plasma concentration of C(I): 8.88 ng/mL and 0.984 ng/mL and 0.509 ng/mL
[2]; [3]
  Plasma concentration of C(I): 4.65 ng/mL and 0.363 ng/mL and BLQ (BLQ denotes below the lower limit of quantitation (0.5 ng/mL).)
  Plasma concentration of psilocin: BLQ (BLQ denotes below the lower limit of quantitation (0.2 ng/ml).)
[2]; [4]
  Plasma concentration of C(I): BLQ (BLQ denotes below the lower limit of quantitation (0.5 ng/mL).); also recorded: No Peak
  Plasma concentration of psilocin: BLQ (BLQ denotes below the lower limit of quantitation (0.2 ng/ml).)
[2]; 1 mg/kg oral C(I), 0.25 h, individual animals
  Plasma concentration of C(I): 0.617 ng/mL and 0.410 ng/mL and 0.910 ng/mL
[2]; 1 mg/kg oral C(I), 0.5 h, individual animals
  Plasma concentration of C(I): 0.816 ng/mL and 0.535 ng/mL and 1.28 ng/mL
[2]; 1 mg/kg oral C(I), 1 h, individual animals
  Plasma concentration of C(I): BLQ (BLQ denotes below the lower limit of quantitation (0.5 ng/mL).) and 1.02 ng/mL
[2]; 1 mg/kg oral C(I), 2 h, individual animals
  Plasma concentration of C(I): BLQ (BLQ denotes below the lower limit of quantitation (0.5 ng/mL).) and 0.600 ng/mL
[2]; 1 mg/kg oral C(I), 4 h, individual animals
  Plasma concentration of C(I): BLQ (BLQ denotes below the lower limit of quantitation (0.5 ng/mL).)
[2]; 1 mg/kg oral C(I), 6 h, individual animals
  Plasma concentration of C(I): BLQ (BLQ denotes below the lower limit of quantitation (0.5 ng/mL).)
[2]; [5]
  Plasma concentration of C(I): BLQ (BLQ denotes below the lower limit of quantitation (0.5 ng/mL).)
  Plasma concentration of psilocin: BLQ (BLQ denotes below the lower limit of quantitation (0.2 ng/ml).)
[2]; [6]
  Plasma concentration of C(I): No Peak and No (2×)
  Plasma concentration of psilocin: No Peak; also recorded: BLQ (BLQ denotes below the lower limit of quantitation (0.2 ng/ml).)
[2]; [7]
  F(%): 0.554% and 0.0450% and 0.465%
  F(%), M37 considered as an outlier: 3.59% and 0.291% and 3.01%
[2]; 1 mg/kg oral, mean ± SD
  F(%), M37 considered as an outlier: 2.30 ± 1.76% and 2.30%
[2]; 3 mg/kg oral C(I), 0.25 h, individual animals
  Plasma concentration of C(I): 2.13 ng/mL and 2.34 ng/mL
[2]; 3 mg/kg oral C(I), 0.5 h, individual animals
  Plasma concentration of C(I): 2.16 ng/mL and 1.99 ng/mL
[2]; 3 mg/kg oral C(I), 1 h, individual animals
  Plasma concentration of C(I): 1.56 ng/mL and 1.33 ng/mL
[2]; 3 mg/kg oral C(I), 2 h, individual animals
  Plasma concentration of C(I): 0.705 ng/mL and 0.720 ng/mL
[2]; 3 mg/kg oral C(I), 4 h, individual animals
  Plasma concentration of C(I): 0.569 ng/mL and 0.873 ng/mL and 1.28 ng/mL
[2]; 3 mg/kg oral C(I), 6 h, individual animals
  Plasma concentration of C(I): 0.310 ng/mL and 0.250 ng/mL
[2]; 3 mg/kg oral C(I), 8 h, individual animals
  Plasma concentration of C(I): BLQ (BLQ denotes below the lower limit of quantitation (0.5 ng/mL).)
[2]; [8]
  Plasma concentration of C(I): No Peak
  Plasma concentration of psilocin: No Peak
[2]; [9]
  F(%): 0.484% and 0.523%
  F(%), M37 considered as an outlier: 3.02% and 3.13% and 3.39%
[2]; 3 mg/kg oral, mean ± SD
  F(%), M37 considered as an outlier: 3.18 ± 0.189% and 3.18%
[2]; 10 mg/kg oral C(I), 0.25 h, individual animals
  Plasma concentration of C(I): 3.73 ng/mL and 6.07 ng/mL
[2]; 10 mg/kg oral C(I), 0.5 h, individual animals
  Plasma concentration of C(I): 7.10 ng/mL and 10.9 ng/mL
[2]; 10 mg/kg oral C(I), 1 h, individual animals
  Plasma concentration of C(I): 5.29 ng/mL and 7.46 ng/mL
[2]; 10 mg/kg oral C(I), 2 h, individual animals
  Plasma concentration of C(I): 2.51 ng/mL and 1.47 ng/mL and 3.80 ng/mL
[2]; 10 mg/kg oral C(I), 4 h, individual animals
  Plasma concentration of C(I): 2.06 ng/mL and 3.01 ng/mL
[2]; 10 mg/kg oral C(I), 6 h, individual animals
  Plasma concentration of C(I): 1.18 ng/mL and 0.661 ng/mL
[2]; 10 mg/kg oral C(I), 8 h, individual animals
  Plasma concentration of C(I): 0.253 ng/mL and 1.10 ng/mL and 0.283 ng/mL
[2]; [10]
  Plasma concentration of C(I): No (2×) and No Peak
  Plasma concentration of psilocin: BLQ (BLQ denotes below the lower limit of quantitation (0.2 ng/ml).)
[2]; 10 mg/kg oral, individual animals
  F(%), M37 considered as an outlier: 2.71% and 2.90% and 4.06%
